Tests used:
[1] = Drug metabolism in CD1 mouse liver microsomes at 10 uM after 30 mins by LCMS analysis; format: ADME; conditions: read-out: Drug metabolism
[2] = Antiproliferative activity against human HCT116 cells assessed as cell viability after 72 hrs by MTT assay; format: functional; conditions: HCT-116, 72 h
[3] = biological target: Serine/threonine-protein kinase PLK1 (Homo sapiens, UniProt P53350); assay: Inhibition of human full length recombinant His-tagged PLK1 expressed in baculovirus by Z'-LYTE assay
Serine/threonine-protein kinase PLK1, sequence (P53350 whole entry): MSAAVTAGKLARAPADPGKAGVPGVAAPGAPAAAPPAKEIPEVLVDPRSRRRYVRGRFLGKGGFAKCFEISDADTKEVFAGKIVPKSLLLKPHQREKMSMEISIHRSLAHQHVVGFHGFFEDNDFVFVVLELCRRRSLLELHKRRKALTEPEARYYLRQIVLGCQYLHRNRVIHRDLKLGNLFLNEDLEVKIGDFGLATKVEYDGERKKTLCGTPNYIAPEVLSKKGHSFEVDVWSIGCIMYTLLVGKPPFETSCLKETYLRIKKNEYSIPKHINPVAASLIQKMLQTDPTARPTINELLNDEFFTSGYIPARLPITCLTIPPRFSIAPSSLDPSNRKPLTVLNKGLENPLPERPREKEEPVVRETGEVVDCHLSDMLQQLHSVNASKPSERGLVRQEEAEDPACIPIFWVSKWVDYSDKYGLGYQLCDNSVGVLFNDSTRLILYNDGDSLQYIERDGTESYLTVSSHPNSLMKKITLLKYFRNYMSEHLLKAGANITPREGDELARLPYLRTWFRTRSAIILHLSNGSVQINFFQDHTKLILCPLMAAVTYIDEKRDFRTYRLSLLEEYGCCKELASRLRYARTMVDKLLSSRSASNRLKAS

[4] = biological target: Mitogen-activated protein kinase 8 (Homo sapiens, UniProt P45983); assay: Inhibition of human full length recombinant His-tagged JNK1 expressed in baculovirus by lanthascreen assay
Mitogen-activated protein kinase 8, sequence (P45983 whole entry): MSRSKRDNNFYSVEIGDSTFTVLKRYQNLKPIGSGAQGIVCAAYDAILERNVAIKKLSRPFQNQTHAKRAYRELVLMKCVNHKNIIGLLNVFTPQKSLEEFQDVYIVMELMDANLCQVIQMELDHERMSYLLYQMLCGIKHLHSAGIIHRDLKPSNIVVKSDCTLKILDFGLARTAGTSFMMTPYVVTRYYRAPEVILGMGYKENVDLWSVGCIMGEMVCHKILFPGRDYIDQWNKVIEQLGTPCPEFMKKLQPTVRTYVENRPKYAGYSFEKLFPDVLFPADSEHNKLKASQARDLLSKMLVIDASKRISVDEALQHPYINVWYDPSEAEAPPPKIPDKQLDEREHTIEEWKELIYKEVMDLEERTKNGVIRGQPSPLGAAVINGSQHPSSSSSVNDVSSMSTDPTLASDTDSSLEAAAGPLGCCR

[5] = biological target: Mitogen-activated protein kinase 9 (Homo sapiens, UniProt P45984); assay: Inhibition of human full length recombinant His-tagged JNK2 expressed in baculovirus by lanthascreen assay
Mitogen-activated protein kinase 9, sequence (P45984 whole entry): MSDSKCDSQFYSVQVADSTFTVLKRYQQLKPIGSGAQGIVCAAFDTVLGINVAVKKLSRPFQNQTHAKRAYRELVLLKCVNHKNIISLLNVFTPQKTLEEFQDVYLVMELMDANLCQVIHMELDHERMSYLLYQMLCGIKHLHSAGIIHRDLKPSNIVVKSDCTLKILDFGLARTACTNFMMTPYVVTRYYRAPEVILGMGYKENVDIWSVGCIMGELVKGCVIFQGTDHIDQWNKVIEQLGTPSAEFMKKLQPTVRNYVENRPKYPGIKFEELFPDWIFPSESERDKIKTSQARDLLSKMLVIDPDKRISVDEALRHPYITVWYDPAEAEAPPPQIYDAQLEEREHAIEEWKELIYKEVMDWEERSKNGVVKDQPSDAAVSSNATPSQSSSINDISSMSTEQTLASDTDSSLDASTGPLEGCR

[6] = Antiproliferative activity against human SW620 cells assessed as cell viability after 72 hrs by MTT assay; format: functional; conditions: SW-620, 72 h
[7] = Antiproliferative activity against human CAL27 cells assessed as cell viability after 72 hrs by MTT assay; format: functional; conditions: CAL-27, 72 h
[8] = Antiproliferative activity against human CAL51 cells assessed as cell viability after 72 hrs by MTT assay; format: functional; conditions: CAL-51, 72 h
[9] = Antiproliferative activity against human MIAPaCa2 cells assessed as cell viability after 72 hrs by MTT assay; format: functional; conditions: MIA PaCa-2, 72 h
[10] = Antiproliferative activity against human RMG-1 cells assessed as cell viability after 72 hrs by MTT assay; format: functional; conditions: RMG-I
Cytochrome P450 2A6 = biological target: T1, Cytochrome P450 2A6 (Homo sapiens, UniProt P11509); assay: Inhibition of CYP2A6 (unknown origin); format: ADME
T1 sequence (P11509 whole entry): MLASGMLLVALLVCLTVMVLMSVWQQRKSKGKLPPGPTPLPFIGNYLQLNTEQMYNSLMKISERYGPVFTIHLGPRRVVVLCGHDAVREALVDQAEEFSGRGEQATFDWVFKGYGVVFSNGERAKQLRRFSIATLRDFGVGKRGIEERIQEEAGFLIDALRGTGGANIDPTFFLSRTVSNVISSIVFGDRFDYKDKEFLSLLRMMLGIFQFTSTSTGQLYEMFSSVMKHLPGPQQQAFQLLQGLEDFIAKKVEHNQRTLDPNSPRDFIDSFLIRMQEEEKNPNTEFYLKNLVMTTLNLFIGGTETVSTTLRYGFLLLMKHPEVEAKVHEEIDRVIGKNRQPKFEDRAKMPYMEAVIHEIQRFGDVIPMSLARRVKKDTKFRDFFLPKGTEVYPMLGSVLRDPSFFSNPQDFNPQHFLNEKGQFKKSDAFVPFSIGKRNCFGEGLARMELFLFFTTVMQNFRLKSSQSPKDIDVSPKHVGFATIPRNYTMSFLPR

Cytochrome P450 3A4 [11] = biological target: T2, Cytochrome P450 3A4 (Homo sapiens, UniProt P08684); assay: Inhibition of CYP3A4T (unknown origin); format: ADME
T2 sequence (P08684 whole entry): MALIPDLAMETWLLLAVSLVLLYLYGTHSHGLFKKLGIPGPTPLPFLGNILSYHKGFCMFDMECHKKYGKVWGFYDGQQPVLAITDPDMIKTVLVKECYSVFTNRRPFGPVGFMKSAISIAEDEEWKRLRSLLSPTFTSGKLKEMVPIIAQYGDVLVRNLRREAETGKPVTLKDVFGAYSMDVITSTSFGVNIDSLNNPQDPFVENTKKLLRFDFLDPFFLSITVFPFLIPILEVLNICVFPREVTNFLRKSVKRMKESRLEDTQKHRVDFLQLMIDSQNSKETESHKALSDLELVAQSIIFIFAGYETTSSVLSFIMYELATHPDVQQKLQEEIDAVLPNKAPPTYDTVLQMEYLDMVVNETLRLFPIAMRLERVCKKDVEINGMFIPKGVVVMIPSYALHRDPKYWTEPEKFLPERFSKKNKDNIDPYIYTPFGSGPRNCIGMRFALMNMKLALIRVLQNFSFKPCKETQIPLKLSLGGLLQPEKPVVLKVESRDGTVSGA

Cytochrome P450 3A4 [12] = biological target: T2, Cytochrome P450 3A4; assay: Inhibition of CYP3A4 (unknown origin) using midazolam as substrate; format: ADME
Cytochrome P450 2C9 = Cytochrome P450 2C9 (Homo sapiens, UniProt P11712); assay: Inhibition of CYP2C9 (unknown origin); format: ADME; conditions: human
Cytochrome P450 2C9, sequence (P11712 whole entry): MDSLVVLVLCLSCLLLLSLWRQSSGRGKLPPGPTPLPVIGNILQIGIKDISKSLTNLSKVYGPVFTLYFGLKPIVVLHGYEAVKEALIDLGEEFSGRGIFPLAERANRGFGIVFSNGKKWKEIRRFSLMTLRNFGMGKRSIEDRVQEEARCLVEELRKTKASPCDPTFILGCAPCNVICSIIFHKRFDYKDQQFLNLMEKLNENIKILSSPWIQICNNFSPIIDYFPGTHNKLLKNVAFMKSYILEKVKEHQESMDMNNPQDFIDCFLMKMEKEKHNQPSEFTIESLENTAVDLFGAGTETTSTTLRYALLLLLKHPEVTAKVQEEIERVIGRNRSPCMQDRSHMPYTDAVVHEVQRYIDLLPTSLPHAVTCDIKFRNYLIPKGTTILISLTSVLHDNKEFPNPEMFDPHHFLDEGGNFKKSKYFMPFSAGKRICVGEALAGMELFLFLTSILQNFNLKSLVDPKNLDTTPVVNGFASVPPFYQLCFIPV

Cytochrome P450 1A2 = biological target: T3, Cytochrome P450 1A2 (Homo sapiens, UniProt P05177); assay: Inhibition of CYP1A2 (unknown origin); format: ADME; conditions: human
T3 sequence (P05177 whole entry): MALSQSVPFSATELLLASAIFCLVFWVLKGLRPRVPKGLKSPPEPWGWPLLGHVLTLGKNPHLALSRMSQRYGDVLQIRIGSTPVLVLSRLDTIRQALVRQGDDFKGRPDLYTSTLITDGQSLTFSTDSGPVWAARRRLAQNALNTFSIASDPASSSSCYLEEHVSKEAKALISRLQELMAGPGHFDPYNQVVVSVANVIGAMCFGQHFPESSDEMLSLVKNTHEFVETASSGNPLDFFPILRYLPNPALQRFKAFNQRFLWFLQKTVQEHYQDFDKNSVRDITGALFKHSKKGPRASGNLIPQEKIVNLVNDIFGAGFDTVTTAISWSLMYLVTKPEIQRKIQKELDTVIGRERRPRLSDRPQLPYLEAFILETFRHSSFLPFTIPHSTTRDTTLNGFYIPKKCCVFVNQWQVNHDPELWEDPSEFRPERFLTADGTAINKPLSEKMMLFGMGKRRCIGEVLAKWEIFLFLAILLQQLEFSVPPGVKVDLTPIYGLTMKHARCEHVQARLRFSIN

Cytochrome P450 2C19 = Cytochrome P450 2C19 (Homo sapiens, UniProt P33261); assay: Inhibition of CYP2C19 (unknown origin); format: ADME; conditions: human
Cytochrome P450 2C19, sequence (P33261 whole entry): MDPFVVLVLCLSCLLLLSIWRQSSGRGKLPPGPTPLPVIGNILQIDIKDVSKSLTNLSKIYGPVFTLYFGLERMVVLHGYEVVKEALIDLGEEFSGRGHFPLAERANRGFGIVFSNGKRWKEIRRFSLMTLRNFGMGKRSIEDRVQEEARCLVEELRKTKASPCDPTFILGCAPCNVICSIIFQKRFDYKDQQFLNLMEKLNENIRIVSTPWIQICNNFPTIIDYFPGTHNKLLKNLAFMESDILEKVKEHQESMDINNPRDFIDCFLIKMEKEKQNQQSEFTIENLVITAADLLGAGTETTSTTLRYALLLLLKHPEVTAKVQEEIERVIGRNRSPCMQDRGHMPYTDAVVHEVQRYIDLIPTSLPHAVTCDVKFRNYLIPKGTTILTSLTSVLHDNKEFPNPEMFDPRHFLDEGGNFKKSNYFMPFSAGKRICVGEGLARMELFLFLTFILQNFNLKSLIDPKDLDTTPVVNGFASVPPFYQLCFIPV

[13] = Drug metabolism in Sprague-Dawley rat liver microsomes at 10 uM after 30 mins by LCMS analysis; format: ADME; conditions: read-out: Drug metabolism
[14] = Drug metabolism in human liver microsomes at 10 uM after 30 mins by LCMS analysis; format: ADME; conditions: read-out: Drug metabolism
[15] = Clearance in Balb/C mouse blood at 5 mg/kg, iv or po after 24 hrs by ESI-LCMS/MS analysis; format: ADME, organism-based
[16] = Clearance in Sprague-Dawley rat blood at 5 mg/kg, iv or po after 24 hrs by ESI-LCMS/MS analysis; format: ADME, organism-based
[17] = Cmax in Balb/C mouse blood at 5 mg/kg, po after 24 hrs by ESI-LCMS/MS analysis; format: ADME, organism-based; design: dose 5 mg/kg, route oral
[18] = AUC in Balb/C mouse blood at 5 mg/kg, po after 24 hrs by ESI-LCMS/MS analysis; format: ADME, organism-based; design: time < 24 hr, dose 5 mg/kg, route oral
[19] = AUC in Sprague-Dawley rat blood at 5 mg/kg, po after 24 hrs by ESI-LCMS/MS analysis; format: ADME, organism-based; design: time < 24 hr, dose 5 mg/kg, route oral
[20] = Plasma protein binding in Sprague-Dawley rat at 5 mg/kg, iv or po after 24 hrs by ESI-LCMS/MS analysis; format: ADME, organism-based; conditions: read-out: PPB (converted)
[21] = Volume of distribution at steady state in Balb/C mouse at 5 mg/kg, iv or po after 24 hrs by ESI-LCMS/MS analysis; format: ADME, organism-based; conditions: in vivo, read-out: Vdss
[22] = Volume of distribution at steady state in Sprague-Dawley rat at 5 mg/kg, iv or po after 24 hrs by ESI-LCMS/MS analysis; format: ADME, organism-based; conditions: in vivo, read-out: Vdss
[23] = Oral bioavailability in Balb/C mouse at 5 mg/kg after 24 hrs by ESI-LCMS/MS analysis; format: ADME, organism-based; conditions: in vivo
[24] = Oral bioavailability in Sprague-Dawley rat at 5 mg/kg after 24 hrs by ESI-LCMS/MS analysis; format: ADME, organism-based; conditions: in vivo

COc1cc(-c2cnn(C)c2)ccc1Nc1ncc2ccnc(N[C@@H](C)C(C)(C)C)c2n1
metabolised at 0.5 h, 10 µM [1]: 27% | GI50 [2]: 160 nM | IC50 [3]: > 100000 nM | IC50 [4]: 110 nM | IC50 [5]: 220 nM | GI50 [6]: 65 nM | GI50 [7]: 230 nM | GI50 [8]: 68 nM | GI50 [9]: 250 nM | GI50 [10]: 110 nM | inhibition (INH) (Cytochrome P450 2A6): Not Active | inhibition (INH) (Cytochrome P450 3A4 [11]): Not Active | inhibition (INH) (Cytochrome P450 3A4 [12]): Not Active | inhibition (INH) (Cytochrome P450 2C9): Not Active | inhibition (INH) (Cytochrome P450 1A2): Not Active | inhibition (INH) (Cytochrome P450 2C19): Not Active | metabolised at 0.5 h, 10 µM [13]: 24% | metabolised at 0.5 h, 10 µM [14]: 70% | clearance [15]: 28 mL/min/kg | clearance [16]: 24 mL/min/kg | Cmax [17]: 770 nM | AUC at 24 h [18]: 4.8 µM·h | AUC at 24 h [19]: 9.3 µM·h | fraction unbound at 24 h [20]: 0.0003 | Vd [21]: 14.7 L/kg | Vd [22]: 4.64 L/kg | bioavailability [23]: 68% | bioavailability [24]: 100%

Source: ChEMBL document CHEMBL3808337, “Rapid Discovery of Pyrido[3,4-d]pyrimidine Inhibitors of Monopolar Spindle Kinase 1 (MPS1) Using a Structure-Based Hybridization Approach” (J Med Chem, 2016)
